“And” between values parts separate entries of the source, which are not always exact repeats. Equal values may be shown once. Where a name gives a salt, the structure may show the parent alone.
Assays:
[1] = Solubility test in purified water (concentration by HPLC)
cholinesterase = settings: in rats; cited from earlier work
[2] = Rivastigmine intranasal vs oral PK in rats (CSF and plasma); settings: single intranasal dose
Protocol: The formulation is administered intranasally or by gastric insertion of a capsule containing the commercial formulation to 12 groups of 6 rats prepped with an indwelling jugular cannula and heparin lock. […] Subsequently, each subject undergoes lumbar puncture with local anaesthesia (xylocalne s.c.), with the retrieval of 50 uL of cerebralspinal fluid (CSF). A paired blood sample from each animal is collected. By assigning groups to different timepoints, the whole PK curve can be assembled. The first CSF sample is collected 5 minutes post dosing and subsequent samples were collected at 20, 50, 75, 100 and 400 minutes.
CSF samples are frozen until analysis.

[3] = cited from earlier work
[4] = Intranasal vs oral galantamine PK in canine subject (plasma, CSF); settings: dog, 0.8 mg/kg; for Tmax: plasma
[5] = Intranasal vs oral galantamine PK (plasma) in ferrets
ferrets = test: Emetic response assay in ferrets; settings: observed for 4 hours
Protocol: • 8 naïve ferrets/dosing group; Nasal versus Oral • Emetic Response Assay • The assay was based on a validated method. Ferrets were monitored and observed for episodes of retching and/or vomiting for 4 hours. • Two formulations dosed: • Emetic Response Assay • The assay was based on a validated method.

[6] = system: in vitro epithelial tissue model; test: TER in in vitro epithelial tissue model with PN159 and galantamine lactate; assay type: cell-based; settings: 25, 50, 100 μM PN159 in the presence of 40 mg/ml galantamine lactate; controls applied apically

COc1ccc2c3c1O[C@H]1C[C@@H](O)C=C[C@@]31CCN(C)C2.O=C(O)[C@H](O)[C@@H](O)[C@H](O)[C@H](O)CO [galantamine gluconate]
solubility in water [1]: ~1.39 M

O=C(CCC1CCN(Cc2ccccc2)CC1)c1ccc2c(c1)NCCCC2 [TAK-147, 3-[1-(phenylmethyl)-4-piperidinyl]-1-(2,3,4,5-tetrahydro-1H-1-benzazepin-8-yl)-1-propanone]
minimal therapeutic concentration (MTC) (cholinesterase): 1.1 nmol/gm

CCN(C)C(=O)Oc1cccc([C@H](C)N(C)C)c1 [rivastigmine]
rivastigmine concentration in CSF after intranasal administration [2]: peaks at a level higher than therapeutic levels reported for plasma following oral dosage in man

COc1ccc2c3c1O[C@H]1C[C@@H](O)C=C[C@@]31CCN(C)C2 [galantamine hydrobromide]
solubility ([1]; purified water, thermodynamic from solid): ~35000 µg/mL and ~121000 µM
generally reported solubility in water [3]: 50 mM

CC(O)C(=O)O.COc1ccc2c3c1O[C@H]1C[C@@H](O)C=C[C@@]31CCN(C)C2 [galantamine lactate]
solubility in water [1]: ~1.39 M

COc1ccc2c3c1O[C@H]1C[C@@H](O)C=C[C@@]31CCN(C)C2 [galantamine]
Tmax in CSF, intranasal vs oral [4]: same trend was observed in the CSF
Tmax ([4]; inhaled or intranasal): ~0.5 h
Tmax ([4]; po): 2 to 3 h
bioavailability ([5]; ferret, plasma, other: intranasal compared to oral): ~70%
Tmax, plasma, intranasal compared to oral ([5]; ferrets, intranasal 200 mg/ml formulation vs Reminyl oral solution): decreased Tmax
Cmax, plasma, intranasal compared to oral ([5]; ferrets, intranasal vs oral): about 4 fold
incidence of retching / emesis, intranasal vs oral (ferrets): dramatic reduction in emesis

triton X
effect on TER [6]: did reduce TER

Nc1c2c(nc3ccccc13)CCCC2 [tacrine]
minimal therapeutic concentration (MTC) (cholinesterase): 3.5 nmol/gm
